# Positions of bridges follow the written chain, without caps; N, C: chain ends. Residues, ends and D or L forms follow the SMILES beside them. Chains are numbered I, II in the order given.
# Test system: P. aeruginosa ATCC 9027 and P. aeruginosa DM4877/07 strains
# Test: Time-kill kinetics
# Assay type: cell-based
# Details: ¼ × MIC of B2088 alone, 0–24 h, MHB, 37 °C
# From the text: It is likely that disruption of the supramolecular organization of LPS could enhance the intracellular accessibility of the antibiotics thus rendering the micro-organisms susceptible at sub-lethal concentration of the drugs. To confirm this, we performed time-kill kinetics at sub-lethal concentration of B2088, antibiotics and their combinations against two different P. aeruginosa strains. […] The effect was quite remarkable for the B2088-gatifloxacin combination as >5 log10 reduction in CFU/ml was apparent in less than 2 h against two different P. aeruginosa strains.
# Figure 6 Antimicrobial efficacy of B2088-antibiotics combinations. Time-kill kinetics showing synergism between B2088 and other antibiotics. (a) B2088 and gatifloxacin against P. aeruginosa ATCC 9027 strains. (b) B2088 and gatifloxacin against P. aeruginosa DM4877/07 strains. (c) B2088 and tobramycin against P. aeruginosa DM4877/07 strains. (d) B2088 and chloramphenicol against P. aeruginosa DM4877/07 strains. Note that for simplicity B2088 and the antibiotics are represented by single letter codes (B – B2088, G – gatifloxacin, T – tobramycin, C – chloramphenicol).
# The kinetics of bactericidal action of is assessed by using each drug alone or in combinations at their sub-inhibitory MICs. […]
smiles,measurement,value
CC(C)[C@H](NC(=O)[C@H](CCCCN)NC(=O)[C@H](CCCNC(=N)N)NC(=O)CNC(=O)[C@@H](N)CCCNC(=N)N)C(=O)N[C@H](C(=O)N[C@@H](CCCNC(=N)N)C(=O)N[C@@H](CCCNC(=N)N)C(=O)NCCCC[C@H](NC(=O)[C@H](CCCNC(=N)N)NC(=O)[C@H](CCCNC(=N)N)NC(=O)[C@@H](NC(=O)[C@@H](NC(=O)[C@H](CCCCN)NC(=O)[C@H](CCCNC(=N)N)NC(=O)CNC(=O)[C@@H](N)CCCNC(=N)N)C(C)C)C(C)C)C(=O)N[C@@H](CCCCN)C(=O)O)C(C)C [B2088] (I: H-RGRKVVRRKK-OH / II: H-RGRKVVRR; amide I:9-II:C; N-terminus and C-terminus assumed),Time-kill outcome,no bacteriostatic or bactericidal activity
